{"source": "paper doi:10.1101/2025.07.20.665728", "about": "(bioRxiv, 2025)", "key": {"[1]": {"tested_on": "C1R.MR1 cells", "experiment": "Endo H treatment and western blot of intracellular MR1", "format": "cell-based", "conditions": "C1R.MR1, 16 h; RF and catabolites 100 μM, Ac-6-FP 10 μM", "procedure": "The downregulation of MR1 on the cell surface by the RF catabolites could be due to the depletion of the intracellular ER-resident MR1 pool, or by retention of MR1 in the ER, as shown for the DB28 ligand ([Salio et al., 2020]). To investigate this, C1R.MR1 cells were treated for 16 h with 100 μM of RF or RF catabolites, conditions which induce MR1 downregulation (Fig. 3A). Cells were lysed, and treated with endoglycosidase (Endo) H, to distinguish molecules that remain within the ER from those that have trafficked to the cell surface ([McWilliam et al., 2016]), then MR1 levels were assessed by immunoblotting (Fig. 3A).\nFigure 3. […] S, Endo H–susceptible MR1; R, Endo H–resistant MR1. The Endo H–susceptible MR1 and Endo H–resistant MR1 fractions were quantified in at least two independent experiments. (b) Intracellular total MR1 level was also measured in C1R.MR1 cells by flow cytometry after treating the cells with the indicated ligands (100 μM) for 16h followed by permeabilization and staining with anti-MR1-PE (8F2.F9). Shown are the overlay histograms (top) and a bar chart depicting the geometric mean fluorescence intensity (gMFI) fold change of intracellular MR1 level (bottom) from three independent experiments performed in duplicates, with standard error (SEM) represented by the error bars. […]"}, "[2]": {"tested_on": "C1R.MR1^R9H cells", "experiment": "Cell surface MR1 R9H quantification, C1R.MR1^R9H", "format": "cell-based", "source_text": "We then tested the effect of the RF catabolites on the expression of two mutant versions of MR1 termed MR1^R9H ([Howson et al., 2020]) and MR1^K43A ([Reantragoon et al., 2013]). First, we tested the MR1^R9H mutant ([Howson et al., 2020]) which represents a rare, natural human polymorph. […] When C1R. […] Next, we tested sought to understand how the previously characterised Lys43A mutation affects ligand binding. […] While this is in line with the ability of these ligands to bind MR1, the reason for MR1^K43A cell surface accumulation is less clear. The most likely explanation is that these ligands bind ER-resident MR1^K43A, in line with our data using wild-type MR1; however, because the K43A mutation results in spontaneous MR1 surface egress, the presence of these stabilising ligands promotes enhanced trafficking and/or retention at the cell surface. We cannot rule out however that the ligands may also bind directly to surface MR1^K43A and slow down the recycling from cell surface.\nThe level of MR1 expressed on the cell surface was measured after the exposure to the investigated ligands as previously described ([Awad et al., 2020a]; [Wang et al., 2022a]). […] The PE fluorescence intensity reflects the surface MR1 level. The data was acquired with an LSRFortessa X-20 (BD Biosciences) and Diva software (BD Biosciences) and analyzed using FlowJo software (BD Biosciences)."}}, "data": [{"compound": "Cc1cc2nc3c(=O)[nH]c(=O)nc-3n(C[C@H](O)[C@H](O)[C@H](O)CO)c2cc1C", "note": "[RF, Riboflavin]", "values": [{"measurement": "Endo H-resistant MR1", "setting": "[1]", "value": "Neither RF nor its catabolites induced any Endo H-resistant MR1"}, {"measurement": "MR1^R9H surface level", "setting": "[2]", "value": "did not deviate from the background level"}]}]}
